Where two headings read alike, the source gives them in different places. Starred links: 1 amine or outer side, 2 acyl side, 3 side chain; linkers in the order of their positions; H or OH if unused. Positions of bridges follow the written chain, without caps; N, C: chain ends. Non-standard residues stand in square brackets, D forms with d. Residues, ends and D or L forms follow the SMILES beside them. *: point of attachment. Phe(4-(CH2)5CO) = O=C([C@H](Cc1ccc(CCCCCC(=O)[*:3])cc1)N[*:1])[*:2]; NMePhe(3-Cl) = CN[C@@H](Cc1cccc(Cl)c1)C(=O)O; Arg(Me2s) = CN=C(NC)NCCC[C@H](N)C(=O)O; X2 = O=C(C[C@H](N[*:1])C(F)(F)F)[*:2]; NMeF = CN[C@@H](Cc1ccccc1)C(=O)O; NMeGABA = CN(CCCC(=O)[*:2])[*:1]; NMeI = CC[C@H](C)[C@H](NC)C(=O)O; NMeβAla = CN(CCC(=O)[*:2])[*:1]; NMeL = CN[C@@H](CC(C)C)C(=O)O; NMeV = CN[C@H](C(=O)O)C(C)C; NMeS = CN[C@@H](CO)C(=O)O; NMeA = CN[C@@H](C)C(=O)O; Piperidide = C1CCN(*)CC1; dNMeA = CN[C@H](C)C(=O)O; Abu = CC[C@H](N)C(=O)O; Sar = CNCC(=O)O; tBu = CC(C)(C)*
Key:
[1] = PAMPA (parallel artificial membrane permeability assay); format: in vitro ADME; conditions: PAMPA
Summary of the method: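 Artificial membrane was 10% (w/v) egg lecithin plus 0.5% (w/v) cholesterol in dodecane on a PVDF filter. A 10 mM DMSO stock was added at 0.5% (v/v) to donor buffer (50 mM MOPSO, pH 6.5, 5.0% glycocholic acid). After 18 h at 37 °C, LC/MS or LC/UV gave donor and acceptor levels for Pe.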

[2] = Metabolic stability in human hepatic microsome; format: in vitro ADME; conditions: microsomes
[3] = membrane permeation rate (Pe), 50 mM MOPSO buffer pH 6.5 with 5.0% glycocholic acid, 37° C., 18 hours, read-out: iPAMPA Pe
[4] = pH 7.4, human hepatic microsome, NADPH(+), read-out: CL NADPH(+)

Row | Structure (SMILES) | Papp at 18 hours, 50 µM ([1]; pH 6.5) | microsomal CLint at 1 uM ([2]; human, pH 7.4, CL NADPH(+)) | Papp at 18 hours, 50 µM [1, 3] | microsomal CLint at 1 uM [2, 4]
1 | CC[C@H](C)[C@H](NC(=O)[C@H](CC(C)C)NC(=O)[C@@H]1CC(=O)N[C@@H](C)C(=O)N[C@@H](CC(C)C)C(=O)N[C@@H](Cc2ccccc2)C(=O)N[C@@H](CC(C)C)C(=O)N[C@@H]([C@@H](C)O)C(=O)N2CCC[C@H]2C(=O)N(C)CC(=O)N[C@@H](Cc2ccccc2)C(=O)N[C@@H](C(C)C)C(=O)N(C)[C@@H](C)C(=O)N1)C(=O)N1CCCCC1 [DP-41] (ALFLTP[Sar]FV[NMeA]DLI-Piperidide; lactam N-11) | 11 ×10⁻⁶ cm/s | 72 µL/min/mg |  | 
2 | CC(C)C[C@@H]1NC(=O)[C@H](CC(C)C)N(C)C(=O)[C@H](C)NC(=O)[C@H](C(C)C)N(C)C(=O)[C@H](C)N(C)C(=O)CN(C)C(=O)[C@H]([C@@H](C)O)NC(=O)[C@H](Cc2ccccc2)NC(=O)[C@H](CC(C)C)N(C)C(=O)[C@H](C)N(C)C(=O)C[C@@H](C(=O)N2CCCCC2)NC1=O [DP-237] ([NMeA][NMeL]FT[Sar][NMeA][NMeV]A[NMeL]LD-Piperidide; lactam N-11) |  |  | 12 ×10⁻⁶ cm/s | 37 µL/min/mg
3 | CC[C@H](C)[C@H]1C(=O)N(C)[C@@H](CC(C)C)C(=O)N[C@@H](Cc2ccccc2)C(=O)N[C@@H]([C@@H](C)O)C(=O)N[C@@H](CC(C)C)C(=O)N(C)[C@@H](Cc2ccccc2)C(=O)N(C)[C@@H](C(C)C)C(=O)N[C@H](C(=O)N2CCC[C@H]2C(=O)N[C@H](C(=O)N[C@@H](C)C(=O)N2CCCCC2)C(C)C)CC(=O)N[C@H](C)C(=O)N[C@@H](C)C(=O)N1C [DP-671] ([dA]A[NMeI][NMeL]FTL[NMeF][NMeV]DPVA-Piperidide; lactam N-10) |  |  | 16 ×10⁻⁶ cm/s | 39 µL/min/mg
4 | CC(C)C[C@H]1C(=O)N(C)[C@@H](Cc2ccccc2)C(=O)N[C@H](C(=O)N2CCCCC2)CC(=O)N(C)[C@@H](C)C(=O)N[C@@H]([C@@H](C)O)C(=O)N(C)CC(=O)N[C@@H](COC(C)(C)C)C(=O)N(C)[C@@H](Cc2ccccc2)C(=O)N1C [DP-710] ([NMeA]T[Sar]S(tBu)[NMeF][NMeL][NMeF]D-Piperidide; lactam N-8) |  |  | 44 ×10⁻⁶ cm/s | 121 µL/min/mg
5 | CC[C@H](C)[C@H]1C(=O)N[C@@H](C)C(=O)N(C)[C@@H](Cc2ccccc2)C(=O)N[C@@H]([C@@H](C)O)C(=O)N(C)[C@@H](CC(C)C)C(=O)N[C@@H](Cc2ccccc2)C(=O)N(C)[C@@H](C(C)C)C(=O)N[C@H](C(=O)N2CCCCC2)Cc2ccc(cc2)CCCCCC(=O)NCC(=O)N(C)[C@@H](CC(C)C)C(=O)N1C [DP-865] (G[NMeL][NMeI]A[NMeF]T[NMeL]F[NMeV][Phe(4-(CH2)5CO)]-Piperidide; lactam N-10) |  |  | 15 ×10⁻⁶ cm/s | 87 µL/min/mg
6 | C/N=C(\NC)NCCC[C@@H]1NC(=O)[C@@H]2CCCN2C(=O)[C@H](CC(C)C)NC(=O)[C@H](CC(C)C)N(C)C(=O)[C@H](Cc2ccccc2)NC(=O)CN(C)C(=O)[C@H](CC(C)C)N(C)C(=O)[C@H](Cc2ccccc2)NC(=O)CN(C)C(=O)C[C@@H](C(=O)N(C)[C@@H](Cc2ccccc2)C(=O)N[C@@H](C)C(=O)N2CCCCC2)NC(=O)[C@H](CC(C)C)NC1=O [DP-597] ([Sar]F[NMeL][Sar]F[NMeL]LP[Arg(Me2s)]LD[NMeF]A-Piperidide; lactam N-11) | 1.7 ×10⁻⁶ cm/s | 12 µL/min/mg |  | 
7 | CC[C@H](C)[C@H]1C(=O)N[C@@H]([C@@H](C)O)C(=O)N(C)CC(=O)N[C@H](C(=O)N2CCCCC2)CC(=O)N[C@H](C)C(=O)N[C@@H](CC(C)C)C(=O)N(C)[C@@H](CC(C)C)C(=O)N(C)[C@@H](Cc2ccccc2)C(=O)N[C@@H](C)C(=O)N(C)[C@@H](Cc2ccccc2)C(=O)N(C)[C@@H](CC(C)C)C(=O)N1C [DP-97] ([dA]L[NMeL][NMeF]A[NMeF][NMeL][NMeI]T[Sar]D-Piperidide; lactam N-11) | 27 ×10⁻⁶ cm/s | 72 µL/min/mg |  | 
8 | CC(C)C[C@H]1C(=O)N(C)[C@@H](CC(C)C)C(=O)N[C@@H](COC(C)(C)C)C(=O)N[C@H](C(=O)N2CCCCC2)CC(=O)N(C)CCCC(=O)N(C)[C@@H](Cc2ccccc2)C(=O)N[C@@H]([C@@H](C)O)C(=O)N(C)CC(=O)N1C [DP-695] ([NMeGABA][NMeF]T[Sar][NMeL][NMeL]S(tBu)D-Piperidide; lactam N-8) |  |  | 15 ×10⁻⁶ cm/s | 47 µL/min/mg
9 | CC[C@H](C)[C@H]1C(=O)N(C)[C@@H](Cc2ccccc2)C(=O)NCC(=O)N(C)[C@@H](Cc2ccccc2)C(=O)N(C)[C@@H](CC(C)C)C(=O)N(C)[C@@H](CC(C)C)C(=O)N[C@H](C(=O)N2CCCCC2)CC(=O)N[C@H](C(C)C)C(=O)N[C@@H]([C@@H](C)O)C(=O)N(C)[C@@H](C)C(=O)N1C [DP-72] ([dV]T[NMeA][NMeI][NMeF]G[NMeF][NMeL][NMeL]D-Piperidide; lactam N-10) | 27 ×10⁻⁶ cm/s | 58 µL/min/mg |  | 
10 | CC[C@H](C)[C@H](NC(=O)[C@H](Cc1ccccc1)N(C)C(=O)[C@H](CC(C)C)N(C)C(=O)[C@@H](NC(=O)[C@@H]1CC(=O)N(C)[C@@H](C)C(=O)N[C@@H]([C@@H](C)CC)C(=O)N(C)[C@@H](CC(C)C)C(=O)N[C@@H]([C@@H](C)O)C(=O)N[C@@H](CC(C)C)C(=O)N(C)[C@@H](Cc2cccc(Cl)c2)C(=O)N1)C(C)C)C(=O)N1CCCCC1 [DP-920] ([NMeA]I[NMeL]TL[NMePhe(3-Cl)]DV[NMeL][NMeF]I-Piperidide; lactam N-7) |  |  | 0.22 ×10⁻⁶ cm/s | 27 µL/min/mg
11 | CC[C@@H]1NC(=O)[C@H](CO)N(C)C(=O)[C@H](CC(C)C)N(C)C(=O)[C@H](CC(C)C)N(C)C(=O)[C@H](CC(C)C)N(C)C(=O)[C@@H](C)NC(=O)[C@H](C)NC(=O)[C@H](CC(C)C)N(C)C(=O)[C@H](CC)NC(=O)[C@H](CC(C)C)N(C)C(=O)C[C@@H](C(F)(F)F)NC1=O [DP-655] (cyclo(A[dA][NMeL][NMeL][NMeL][NMeS][Abu][X2][NMeL][Abu][NMeL])) |  |  | 34 ×10⁻⁶ cm/s | 62 µL/min/mg
12 | C=C1CCC(=O)NCC(=O)N(C)[C@@H](C)C(=O)N[C@@H](CC(C)C)C(=O)N[C@@H](C(C)C)C(=O)N(C)[C@@H](CC(C)C)C(=O)N[C@@H](Cc2ccccc2)C(=O)N(C)[C@@H](Cc2ccccc2)C(=O)N[C@@H]([C@@H](C)CC)C(=O)N(C)[C@@H](C)C(=O)N[C@@H](CC(C)C)C(=O)N[C@@H]([C@@H](C)O)C(=O)N[C@H](C(=O)N2CCCCC2)Cc2ccc1cc2 [DP-887] |  |  | 3.9 ×10⁻⁶ cm/s | 103 µL/min/mg
13 | CC[C@H](C)[C@@H]1NC(=O)[C@H](CC(C)C)N(C)C(=O)[C@H](C(C)C)NC(=O)[C@H](CC(C)C)NC(=O)[C@H](CC(C)C)NC(=O)[C@H]([C@@H](C)O)NC(=O)[C@H](Cc2ccccc2)NC(=O)[C@H](CC(C)C)NC(=O)[C@H](C(C)C)N(C)C(=O)CCN(C)C(=O)C[C@@H](C(=O)N2CCCCC2)NC1=O [DP-412] ([NMeβAla][NMeV]LFTLLV[NMeL]ID-Piperidide; lactam N-11) |  |  | 26 ×10⁻⁶ cm/s | 122 µL/min/mg
14 | CC(C)C[C@H]1C(=O)N[C@@H](C(C)C)C(=O)N(C)[C@@H](C)C(=O)N[C@@H]([C@@H](C)O)C(=O)N(C)[C@@H](C)C(=O)N[C@H](C(=O)N2CCCCC2)CC(=O)N(C)CCC(=O)N(C)[C@@H](C)C(=O)N(C)[C@@H](Cc2ccccc2)C(=O)N[C@@H](C)C(=O)N(C)[C@@H](CC(C)C)C(=O)N(C)CC(=O)N1C [DP-511] ([NMeβAla][NMeA][NMeF]A[NMeL][Sar][NMeL]V[NMeA]T[NMeA]D-Piperidide; lactam N-12) |  |  | 1.1 ×10⁻⁶ cm/s | 15 µL/min/mg
15 | CC[C@H](C)[C@H](NC(=O)[C@H](Cc1ccccc1)N(C)C(=O)[C@@H](NC(=O)[C@H](C)NC(=O)[C@H](CC(C)C)N(C)C(=O)[C@@H]1CC(=O)N(C)[C@@H](C)C(=O)N(C)[C@@H](CC(C)C)C(=O)N(C)[C@@H](Cc2ccccc2)C(=O)N[C@@H]([C@@H](C)O)C(=O)N(C)[C@@H](CC(C)C)C(=O)N(C)[C@@H](CC(C)C)C(=O)N[C@@H]([C@@H](C)CC)C(=O)N(C)[C@@H](CC(C)C)C(=O)N1)C(C)C)C(=O)N1CCCCC1 [DP-938] ([NMeA][NMeL][NMeF]T[NMeL][NMeL]I[NMeL]D[NMeL]AV[NMeF]I-Piperidide; lactam N-9) |  |  | 0.1 ×10⁻⁶ cm/s | 8 µL/min/mg
16 | CC[C@H](C)[C@H](NC(=O)[C@H](CC(C)C)N(C)C(=O)[C@@H]1CCCN1C(=O)[C@H](Cc1ccccc1)N(C)C(=O)[C@@H]1CC(=O)N(C)CCC(=O)N[C@@H](Cc2ccccc2)C(=O)N(C)[C@@H](CC(C)C)C(=O)N[C@@H]([C@@H](C)O)C(=O)N[C@@H](C(C)C)C(=O)NCC(=O)N(C)[C@@H](CC(C)C)C(=O)N[C@@H](CC(C)C)C(=O)N(C)[C@@H](CC(C)C)C(=O)N1)C(=O)N1CCCCC1 [DP-948] ([NMeβAla]F[NMeL]TVG[NMeL]L[NMeL]D[NMeF]P[NMeL]I-Piperidide; lactam N-10) |  |  | 0.78 ×10⁻⁶ cm/s | 20 µL/min/mg
17 | CC(C)C[C@H]1C(=O)N(C)[C@@H](Cc2ccccc2)C(=O)N(C)[C@@H](CC(C)C)C(=O)N[C@H](C(=O)N2CCCCC2)CC(=O)N[C@H](C)C(=O)N[C@@H](C)C(=O)N[C@@H]([C@@H](C)O)C(=O)N(C)[C@@H](C)C(=O)N[C@@H](Cc2ccccc2)C(=O)N1C [DP-263] ([dA]AT[NMeA]F[NMeL][NMeF][NMeL]D-Piperidide; lactam N-9) |  |  | 34 ×10⁻⁶ cm/s | 136 µL/min/mg
18 | CC(C)C[C@H]1C(=O)N[C@@H](C)C(=O)N(C)[C@@H](C)C(=O)N[C@H](C(=O)N(C)[C@@H](Cc2ccccc2)C(=O)N[C@@H](C)C(=O)N2CCCCC2)CC(=O)N(C)[C@H](C)C(=O)N(C)[C@@H](C(C)C)C(=O)N(C)[C@@H](C)C(=O)N[C@@H](Cc2ccccc2)C(=O)N[C@@H]([C@@H](C)O)C(=O)N(C)[C@@H](C)C(=O)N1C [DP-354] ([dNMeA][NMeV][NMeA]FT[NMeA][NMeL]A[NMeA]D[NMeF]A-Piperidide; lactam N-10) |  |  | 3.3 ×10⁻⁶ cm/s | 8 µL/min/mg

Reference: US9409952B2, “Peptide-compound cyclization method” (Chugai Seiyaku Kabushiki Kaisha, priority 2011, dated 2016)
